From patent US20080176862A1, “New Compounds 617” (ASTRAZENECA AB, priority 2006, published 2008)

Target: T1, human β-Secretase (soluble part, AA1-AA460; sBACE-Fc) (Homo sapiens, UniProt P56817)
T1 construct: The soluble part of the human β-Secretase (AA1-AA460) was cloned into the ASP2-Fc10-1-IRES-GFP-neoK mammalian expression vector; made in house
Assay: TR-FRET assay
Format: biochemical
Conditions: substrate (Europium)CEVNLDAEFK(Qsy7) 100 nM, pH 4.5, 15 min at RT; read-out: IC50 (nM) in TR-FRET assay

T1 sequence (P56817 22-460): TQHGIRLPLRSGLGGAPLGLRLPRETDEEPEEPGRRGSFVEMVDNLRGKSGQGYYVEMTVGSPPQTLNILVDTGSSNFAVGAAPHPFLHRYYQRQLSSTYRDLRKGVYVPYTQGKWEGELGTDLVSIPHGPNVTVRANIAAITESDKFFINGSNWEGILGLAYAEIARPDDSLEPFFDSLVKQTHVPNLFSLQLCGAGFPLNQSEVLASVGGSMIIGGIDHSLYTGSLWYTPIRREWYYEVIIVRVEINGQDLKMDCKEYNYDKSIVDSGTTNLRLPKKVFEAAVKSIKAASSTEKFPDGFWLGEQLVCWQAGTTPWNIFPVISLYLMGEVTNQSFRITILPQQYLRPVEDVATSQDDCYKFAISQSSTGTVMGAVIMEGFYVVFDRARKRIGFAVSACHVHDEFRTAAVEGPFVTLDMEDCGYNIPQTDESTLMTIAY

Row | SMILES | IC50
1 | CN1C(=O)C(c2cccc(OS(=O)(=O)c3ccc4c(c3)CCC4)c2)(c2ccc(F)c(Br)c2)N=C1N (stereo not shown) [Example 228, 3-[2-Amino-4-(3-bromo-4-fluorophenyl)-1-methyl-5-oxo-4,5-dihydro-1H-imidazol-4-yl]phenyl indane-5-sulfonate] | 788 nM
2 | CN1C(=O)C(c2cccc(OS(=O)(=O)c3ccc4c(c3)oc(=O)n4C)c2)(c2ccc(F)c(Br)c2)N=C1N (stereo not shown) [Example 229, 3-[2-Amino-4-(3-bromo-4-fluorophenyl)-1-methyl-5-oxo-4,5-dihydro-1H-imidazol-4-yl]phenyl 3-methyl-2-oxo-2,3-dihydro-1,3-benzoxazole-6-sulfonate] | 299 nM
3 | Cc1nn(C)c(Cl)c1S(=O)(=O)Oc1cccc(C2(c3ccc(F)c(Br)c3)N=C(N)N(C)C2=O)c1 (stereo not shown) [Example 230, 3-[2-Amino-4-(3-bromo-4-fluorophenyl)-1-methyl-5-oxo-4,5-dihydro-1H-imidazol-4-yl]phenyl 5-chloro-1,3-dimethyl-1H-pyrazole-4-sulfonate] | 129 nM
4 | CN1C(=O)C(c2cccc(OS(=O)(=O)c3ccc(Cl)s3)c2)(c2ccc(F)c(Br)c2)N=C1N (stereo not shown) [Example 231, 3-[2-Amino-4-(3-bromo-4-fluorophenyl)-1-methyl-5-oxo-4,5-dihydro-1H-imidazol-4-yl]phenyl 5-chlorothiophene-2-sulfonate] | 859 nM
5 | CN1C(=O)C(c2cccc(OS(=O)(=O)c3cn(C)cn3)c2)(c2ccc(F)c(Br)c2)N=C1N (stereo not shown) [Example 232, 3-[2-Amino-4-(3-bromo-4-fluorophenyl)-1-methyl-5-oxo-4,5-dihydro-1H-imidazol-4-yl]phenyl 1-methyl-1H-imidazole-4-sulfonate] | 594 nM
6 | CN1C(=O)C(c2cccc(OS(=O)(=O)c3c(Cl)nc4sccn34)c2)(c2ccc(F)c(Br)c2)N=C1N (stereo not shown) [Example 233, 3-[2-Amino-4-(3-bromo-4-fluorophenyl)-1-methyl-5-oxo-4,5-dihydro-1H-imidazol-4-yl]phenyl 6-chloroimidazo[2,1-b][1,3]thiazole-5-sulfonate] | 321 nM
7 | CCC(C)(C)c1ccc(S(=O)(=O)Oc2cccc(C3(c4ccc(F)c(-c5cncnc5)c4)N=C(N)N(C)C3=O)c2)cc1 (stereo not shown) [Example 234, 3-[2-Amino-4-(4-fluoro-3-pyrimidin-5-ylphenyl)-1-methyl-5-oxo-4,5-dihydro-1H-imidazol-4-yl]phenyl 4-(1,1-dimethylpropyl)benzenesulfonate] | 82 nM
8 | COc1ccc(OC)c(S(=O)(=O)Oc2cccc(C3(c4ccc(F)c(-c5cncnc5)c4)N=C(N)N(C)C3=O)c2)c1 (stereo not shown) [Example 235, 3-[2-Amino-4-(4-fluoro-3-pyrimidin-5-ylphenyl)-1-methyl-5-oxo-4,5-dihydro-1H-imidazol-4-yl]phenyl 2,5-dimethoxybenzenesulfonate] | 589 nM
9 | CN1C(=O)C(c2cccc(OS(=O)(=O)c3c(F)cccc3F)c2)(c2ccc(F)c(-c3cncnc3)c2)N=C1N (stereo not shown) [Example 236, 3-[2-Amino-4-(4-fluoro-3-pyrimidin-5-ylphenyl)-1-methyl-5-oxo-4,5-dihydro-1H-imidazol-4-yl]phenyl 2,6-difluorobenzenesulfonate] | 65 nM
10 | CN1C(=O)C(c2cccc(OS(=O)(=O)c3ccccn3)c2)(c2ccc(F)c(-c3cncnc3)c2)N=C1N (stereo not shown) [Example 237, 3-[2-Amino-4-(4-fluoro-3-pyrimidin-5-ylphenyl)-1-methyl-5-oxo-4,5-dihydro-1H-imidazol-4-yl]phenyl pyridine-2-sulfonate] | 124 nM
11 | CN1C(=O)C(c2cccc(OS(=O)(=O)c3ccc(-n4cccn4)cc3)c2)(c2ccc(F)c(-c3cncnc3)c2)N=C1N (stereo not shown) [Example 238, 3-[2-Amino-4-(4-fluoro-3-pyrimidin-5-ylphenyl)-1-methyl-5-oxo-4,5-dihydro-1H-imidazol-4-yl]phenyl 4-(1H-pyrazol-1-yl)benzenesulfonate] | 46 nM
12 | CN1C(=O)C(c2cccc(OS(=O)(=O)c3ccc4c(c3)CCC4)c2)(c2ccc(F)c(-c3cccnc3)c2)N=C1N (stereo not shown) [Example 283, 3-[2-Amino-4-(4-fluoro-3-pyridin-3-ylphenyl)-1-methyl-5-oxo-4,5-dihydro-1H-imidazol-4-yl]phenyl indane-5-sulfonate 0.25 acetate] | 30 nM

The remaining lines, values ahead:

Row | IC50 | SMILES
13 | 19 nM | CN1C(=O)C(c2cccc(OS(=O)(=O)c3ccc4c(c3)CCC4)c2)(c2ccc(F)c(-c3cncnc3)c2)N=C1N (stereo not shown) [Example 239, 3-[2-Amino-4-(4-fluoro-3-pyrimidin-5-ylphenyl)-1-methyl-5-oxo-4,5-dihydro-1H-imidazol-4-yl]phenyl indane-5-sulfonate]
14 | 20 nM | CN1C(=O)C(c2cccc(OS(=O)(=O)c3ccc4c(c3)oc(=O)n4C)c2)(c2ccc(F)c(-c3cncnc3)c2)N=C1N (stereo not shown) [Example 240, 3-[2-Amino-4-(4-fluoro-3-pyrimidin-5-ylphenyl)-1-methyl-5-oxo-4,5-dihydro-1H-imidazol-4-yl]phenyl 3-methyl-2-oxo-2,3-dihydro-1,3-benzoxazole-6-sulfonate]
15 | 20 nM | Cc1nn(C)c(Cl)c1S(=O)(=O)Oc1cccc(C2(c3ccc(F)c(-c4cncnc4)c3)N=C(N)N(C)C2=O)c1 (stereo not shown) [Example 241, 3-[2-Amino-4-(4-fluoro-3-pyrimidin-5-ylphenyl)-1-methyl-5-oxo-4,5-dihydro-1H-imidazol-4-yl]phenyl 5-chloro-1,3-dimethyl-1H-pyrazole-4-sulfonate]
16 | 31 nM | CN1C(=O)C(c2cccc(OS(=O)(=O)c3ccc(Cl)s3)c2)(c2ccc(F)c(-c3cncnc3)c2)N=C1N (stereo not shown) [Example 242, 3-[2-Amino-4-(4-fluoro-3-pyrimidin-5-ylphenyl)-1-methyl-5-oxo-4,5-dihydro-1H-imidazol-4-yl]phenyl-5-chlorothiophene-2-sulfonate]
17 | 26 nM | CN1C(=O)C(c2cccc(OS(=O)(=O)c3cn(C)cn3)c2)(c2ccc(F)c(-c3cncnc3)c2)N=C1N (stereo not shown) [Example 243, 3-[2-Amino-4-(4-fluoro-3-pyrimidin-5-ylphenyl)-1-methyl-5-oxo-4,5-dihydro-1H-imidazol-4-yl]phenyl 1-methyl-1H-imidazole-4-sulfonate]
18 | 96 nM | CCc1ccc(C2(c3ccc(F)c(-c4cncnc4)c3)N=C(N)N(C)C2=O)cc1OS(C)(=O)=O (stereo not shown) [Example 253, 5-[2-Amino-4-(4-fluoro-3-pyrimidin-5-ylphenyl)-1-methyl-5-oxo-4,5-dihydro-1H-imidazol-4-yl]-2-ethylphenyl methanesulfonate 0.5 acetate]
19 | 183 nM | CCC(C)(C)c1ccc(S(=O)(=O)Oc2ccc(C3(c4ccc(F)c(-c5cncnc5)c4)N=C(N)N(C)C3=O)cc2)cc1 (stereo not shown) [Example 276, 4-[2-Amino-4-(4-fluoro-3-pyrimidin-5-ylphenyl)-1-methyl-5-oxo-4,5-dihydro-1H-imidazol-4-yl]phenyl 4-(1,1-dimethylpropyl)benzenesulfonate]
20 | 183 nM | COc1ccc(OC)c(S(=O)(=O)Oc2ccc(C3(c4ccc(F)c(-c5cncnc5)c4)N=C(N)N(C)C3=O)cc2)c1 (stereo not shown) [Example 277, 4-[2-Amino-4-(4-fluoro-3-pyrimidin-5-ylphenyl)-1-methyl-5-oxo-4,5-dihydro-1H-imidazol-4-yl]phenyl 2,5-dimethoxybenzenesulfonate]
21 | 65 nM | CN1C(=O)C(c2ccc(OS(=O)(=O)c3c(F)cccc3F)cc2)(c2ccc(F)c(-c3cncnc3)c2)N=C1N (stereo not shown) [Example 278, 4-[2-Amino-4-(4-fluoro-3-pyrimidin-5-ylphenyl)-1-methyl-5-oxo-4,5-dihydro-1H-imidazol-4-yl]phenyl 2,6-difluorobenzenesulfonate]
22 | 23 nM | COc1ccc(S(=O)(=O)Oc2ccc(C3(c4ccc(F)c(-c5cncnc5)c4)N=C(N)N(C)C3=O)cc2)cc1 (stereo not shown) [Example 279, 4-[2-amino-4-(4-fluoro-3-pyrimidin-5-ylphenyl)-1-methyl-5-oxo-4,5-dihydro-1H-imidazol-4-yl]phenyl 4-methoxybenzenesulfonate]
23 | 234 nM | Cc1noc(C)c1S(=O)(=O)Oc1ccc(C2(c3ccc(F)c(-c4cncnc4)c3)N=C(N)N(C)C2=O)cc1 (stereo not shown) [Example 280, 4-[2-amino-4-(4-fluoro-3-pyrimidin-5-ylphenyl)-1-methyl-5-oxo-4,5-dihydro-1H-imidazol-4-yl]phenyl 3,5-dimethylisoxazole-4-sulfonate]
24 | 79 nM | CCC(C)(C)c1ccc(S(=O)(=O)Oc2ccc(C3(c4ccc(F)c(-c5cccnc5)c4)N=C(N)N(C)C3=O)cc2)cc1 (stereo not shown) [Example 281, 4-[2-Amino-4-(4-fluoro-3-pyridin-3-ylphenyl)-1-methyl-5-oxo-4,5-dihydro-1H-imidazol-4-yl]phenyl 4-(1,1-dimethylpropyl)benzenesulfonate]
25 | 59 nM | COc1ccc(OC)c(S(=O)(=O)Oc2ccc(C3(c4ccc(F)c(-c5cccnc5)c4)N=C(N)N(C)C3=O)cc2)c1 (stereo not shown) [Example 282, 4-[2-Amino-4-(4-fluoro-3-pyridin-3-ylphenyl)-1-methyl-5-oxo-4,5-dihydro-1H-imidazol-4-yl]phenyl 2,5-dimethoxybenzenesulfonate0.25 acetate]
26 | 60 nM | CN1C(=O)C(c2ccc(OS(=O)(=O)c3ccc4c(c3)oc(=O)n4C)cc2)(c2ccc(F)c(-c3cccnc3)c2)N=C1N (stereo not shown) [Example 284, 4-[2-Amino-4-(4-fluoro-3-pyridin-3-ylphenyl)-1-methyl-5-oxo-4,5-dihydro-1H-imidazol-4-yl]phenyl 3-methyl-2-oxo-2,3-dihydro-1,3-benzoxazole-6-sulfonate 0.5acetate]
27 | 122 nM | Cc1nn(C)c(Cl)c1S(=O)(=O)Oc1ccc(C2(c3ccc(F)c(-c4cccnc4)c3)N=C(N)N(C)C2=O)cc1 (stereo not shown) [Example 285, 4-[2-Amino-4-(4-fluoro-3-pyridin-3-ylphenyl)-1-methyl-5-oxo-4,5-dihydro-1H-imidazol-4-yl]phenyl 5-chloro-1,3-dimethyl-1H-pyrazole-4-sulfonate 0.25 acetate]
28 | 68 nM | CN1C(=O)C(c2ccc(OS(=O)(=O)c3c(Cl)nc4sccn34)cc2)(c2ccc(F)c(-c3cccnc3)c2)N=C1N (stereo not shown) [Example 286]
